Among the data in US9096596B2 (Janssen Pharmaceutica NV, priority 2013, dated 2015) are IC50 and remaining activity values, retold here.

As usually defined, the IC50 is the concentration at which inhibition is half-maximal.

Holding throughout (type): cell-based
The target of experiment [1] is T1, P2X7 (Homo sapiens (Human), UniProt Q99572). The experiment is described as follows: Ca2+ flux (FLIPR) in 1321N1 cells expressing recombinant human P2X7 channel. Particulars: 250 μM BzATP, Calcium-4 dye. How it is done:
(§1) 1321N1 cells expressing the recombinant human, rat or mouse P2X7 channel was cultured in HyQ DME/(HyClone/Dulbecco's Modified Eagle Medium) high glucose supplemented with 10% Fetal Bovine Serum (FBS) and appropriate selection marker. Cells were seeded at a density of 25000 cells/well (96-well clear bottom black walled plates) in 100 μl volume/well. On the day of the experiment, cell plates were washed with assay buffer, containing (in mM): 130 NaCl, 2 KCl, 1 CaCl2, 1 MgCl2, 10 HEPES, 5 glucose; pH 7.40 and 300 mOs. After the wash, cells were loaded with the Calcium-4 dye (Molecular Device) and incubated in the dark for 60 minutes. Test compounds were prepared at 250× the test concentration in neat DMSO. Intermediate 96-well compound plates were prepared by transferring 1.2 μL of the compound into 300 μL of assay buffer. A further 3× dilution occurred when transferring 50 μL/well of the compound plate to 100 μL/well in the cell plate. Cells were incubated with test compounds and dye for 30 minutes. […] The fluorescence change was measured 180 seconds after adding the agonist.

The target of the next experiment is rat P2X7 (Rattus norvegicus (Rat), UniProt Q64663). The experiment is described as follows: Ca2+ flux (FLIPR) in 1321N1 cells expressing recombinant rat P2X7 channel. The settings on record: 250 μM BzATP, Calcium-4 dye. How it is done: as §1
Background: A change in cytosolic calcium serves as a functional read-out for many receptors and channels.

The target in experiment [2] is T1, P2X7. The experiment in a line: P2X7 antagonism in human PBMCs (IL-1β release, ELISA). The settings on record: test compound 10 μM, IL-1β release in human PBMCs, LPS 30 ng/ml + Bz-ATP 0.5 mM, read-out: PBMC 10 μM (% control). How it is done:
Human blood was collected using a blood donor program. […] Cells were incubated for an additional 1.5 hours. […] In Table 2, when the data cell has been left blank, it is intended to mean that the compound was not tested in that assay.
(An ELISA detects its analyte on a solid surface through an enzyme-linked reagent.)

T1 sequence (Q99572 whole entry): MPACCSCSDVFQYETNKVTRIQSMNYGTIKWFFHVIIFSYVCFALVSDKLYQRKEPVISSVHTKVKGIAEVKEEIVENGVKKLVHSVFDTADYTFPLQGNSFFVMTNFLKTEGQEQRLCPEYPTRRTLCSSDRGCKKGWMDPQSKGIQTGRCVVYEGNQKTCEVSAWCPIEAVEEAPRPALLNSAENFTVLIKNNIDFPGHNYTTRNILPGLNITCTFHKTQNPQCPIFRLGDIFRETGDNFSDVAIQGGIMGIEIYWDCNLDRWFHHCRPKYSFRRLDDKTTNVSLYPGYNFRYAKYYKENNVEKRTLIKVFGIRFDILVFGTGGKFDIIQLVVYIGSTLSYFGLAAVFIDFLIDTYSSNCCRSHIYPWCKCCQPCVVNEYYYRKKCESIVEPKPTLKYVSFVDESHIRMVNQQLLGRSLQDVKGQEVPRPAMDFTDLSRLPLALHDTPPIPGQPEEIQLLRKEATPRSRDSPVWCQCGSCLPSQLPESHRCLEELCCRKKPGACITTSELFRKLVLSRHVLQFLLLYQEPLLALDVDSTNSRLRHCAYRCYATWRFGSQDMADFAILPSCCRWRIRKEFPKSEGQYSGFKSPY
Sequence of rat P2X7 (Q64663 whole entry): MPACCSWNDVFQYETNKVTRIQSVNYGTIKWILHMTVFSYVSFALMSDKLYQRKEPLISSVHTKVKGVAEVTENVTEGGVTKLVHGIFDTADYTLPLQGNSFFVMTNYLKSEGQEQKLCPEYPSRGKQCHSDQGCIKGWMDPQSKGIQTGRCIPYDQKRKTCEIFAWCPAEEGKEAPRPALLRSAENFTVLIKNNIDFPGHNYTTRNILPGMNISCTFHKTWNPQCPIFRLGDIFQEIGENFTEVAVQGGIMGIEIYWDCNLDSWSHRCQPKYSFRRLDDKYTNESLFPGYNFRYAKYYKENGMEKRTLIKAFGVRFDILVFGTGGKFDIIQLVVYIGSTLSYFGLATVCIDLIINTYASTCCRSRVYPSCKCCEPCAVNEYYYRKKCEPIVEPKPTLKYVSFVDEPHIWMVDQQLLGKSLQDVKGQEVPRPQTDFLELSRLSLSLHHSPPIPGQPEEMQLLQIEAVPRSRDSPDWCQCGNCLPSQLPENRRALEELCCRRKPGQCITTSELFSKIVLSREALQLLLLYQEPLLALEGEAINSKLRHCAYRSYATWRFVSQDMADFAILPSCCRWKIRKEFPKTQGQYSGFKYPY

For the compound `Cc1nc2c(c(-c3ccn[nH]3)n1)C[C@H](C)N(C(=O)c1cccc(C(F)(F)F)c1C)C2` (single isomer, unassigned) [Example 79, (S*)-(2,6-dimethyl-4-(1H-pyrazol-5-yl)-5,6-dihydropyrido[3,4-d]pyrimidin-7(8H)-yl)(2-methyl-3-(trifluoromethyl)phenyl)methanone], the IC50 on P2X7 [1] was 3240 nM.
On to `Cc1nc2c(c(-c3ccn[nH]3)n1)C[C@@H](C)N(C(=O)c1ccc(Cl)cc1F)C2` (single isomer, unassigned) [Example 88, (R*)-(4-chloro-2-fluorophenyl)(2,6-dimethyl-4-(1H-pyrazol-5-yl)-5,6-dihydropyrido[3,4-d]pyrimidin-7(8H)-yl)methanone], for which, at P2X7 [1], the IC50 is 11000 nM.
For `Cc1nc2c(c(-c3ccn[nH]3)n1)C[C@@H](C)N(C(=O)c1ccc(F)cc1F)C2` (single isomer, unassigned) [Example 94, (R*)-(2,4-difluorophenyl)(2,6-dimethyl-4-(1H-pyrazol-5-yl)-5,6-dihydropyrido[3,4-d]pyrimidin-7(8H)-yl)methanone], the IC50 at P2X7 [1] and at rat P2X7 was over 10000 nM throughout.
`COCCn1ccc(-c2nc(C)nc3c2C[C@H](C)N(C(=O)c2cccc(C(F)(F)F)c2Cl)C3)n1` (single isomer, unassigned) [Example 127, (S*)-(2-chloro-3-(trifluoromethyl)phenyl)(4-(1-(2-methoxyethyl)-1H-pyrazol-3-yl)-2,6-dimethyl-5,6-dihydropyrido[3,4-d]pyrimidin-7(8H)-yl)methanone]: the IC50 on P2X7 [1] and on rat P2X7 was over 10000 nM each time.
As to `O=C(c1cccc(Cl)c1Cl)N1CCc2c(ncnc2-c2cn[nH]c2)C1` [Example 4, 7-[(2,3-Dichlorophenyl)carbonyl]-4-(1H-pyrazol-4-yl)-5,6,7,8-tetrahydropyrido[3,4-d]pyrimidine], the IC50 at P2X7 [1] came out at 388 nM; on rat P2X7, 12500 nM.
In the same order, the values of `Cn1cc(-c2ncnc3c2CCN(C(=O)c2cccc(Cl)c2Cl)C3)cn1` [Example 5, 7-[(2,3-Dichlorophenyl)carbonyl]-4-(1-methyl-1H-pyrazol-4-yl)-5,6,7,8-tetrahydropyrido[3,4-d]pyrimidine] are 12800 nM and over 10000 nM.
The corresponding values for `O=C(c1cccc(Cl)c1Cl)N1CCc2c(ncnc2-n2cccn2)C1` [Example 22, 7-[(2,3-Dichlorophenyl)carbonyl]-4-(1H-pyrazol-1-yl)-5,6,7,8-tetrahydropyrido[3,4-d]pyrimidine] are 198 nM and 28100 nM.
On to `Cc1nc2c(c(-c3ccc(F)cc3)n1)CCN(C(=O)c1cccc(Cl)c1Cl)C2` [Example 28, 7-[(2,3-Dichlorophenyl)carbonyl]-4-(4-fluorophenyl)-2-methyl-5,6,7,8-tetrahydropyrido[3,4-d]pyrimidine], for which, on P2X7 [2], the remaining activity at 10 µM was 12.4%. Further, the 50% inhibitory concentration (IC50) on rat P2X7 was determined as 8570 nM.
Take `Nc1nc2c(c(-c3ccccc3)n1)CCN(C(=O)c1cccc(Cl)c1Cl)C2` [Example 29, 7-[(2,3-Dichlorophenyl)carbonyl]-4-phenyl-5,6,7,8-tetrahydropyrido[3,4-d]pyrimidin-2-amine]: the IC50 on P2X7 [1] was 796 nM.
In the case of `Cc1nc2c(c(-c3ccccc3)n1)CCN(C(=O)c1cccc(C(F)(F)F)c1Cl)C2` [Example 32, 7-{[2-Chloro-3-(trifluoromethyl)phenyl]carbonyl}-2-methyl-4-phenyl-5,6,7,8-tetrahydropyrido[3,4-d]pyrimidine], on P2X7 [1], the IC50 amounted to 265 nM.
Turning to `Nc1nc2c(c(-c3ccn[nH]3)n1)CCN(C(=O)c1cccc(C(F)(F)F)c1Cl)C2` [Example 55, 7-{[2-Chloro-3-(trifluoromethyl)phenyl]carbonyl}-4-(1H-pyrazol-5-yl)-5,6,7,8-tetrahydropyrido[3,4-d]pyrimidin-2-amine], at P2X7 [2], the remaining activity at 10 µM is -2.1%. For the same compound, the IC50 at rat P2X7 was 117 nM.
Consider `Cc1nc2c(c(-c3ccn[nH]3)n1)CC(C)N(C(=O)c1ccc(F)c(C(F)(F)F)c1Cl)C2` (centres unmarked) [Example 64, (2-chloro-4-fluoro-3-(trifluoromethyl)phenyl)(2,6-dimethyl-4-(1H-pyrazol-5-yl)-5,6-dihydropyrido[3,4-d]pyrimidin-7(8H)-yl)methanone], for which the remaining activity at 10 µM on P2X7 [2] is -2.1%.
Consider `Cc1nc2c(c(-c3ccn[nH]3)n1)CC(C)N(C(=O)c1cccc(Cl)c1Cl)C2` (centres unmarked) [Example 67, (2,3-dichlorophenyl)(2,6-dimethyl-4-(1H-pyrazol-5-yl)-5,6-dihydropyrido[3,4-d]pyrimidin-7(8H)-yl)methanone], for which the remaining activity at 10 µM on P2X7 [2] was -1.3%. Moreover, the IC50 on rat P2X7 came to 14.5 nM.
Take `Cc1nc2c(c(-c3ccn[nH]3)n1)CC(C)N(C(=O)c1ccc(Cl)c(F)c1Cl)C2` (centres unmarked) [Example 70, (2,4-dichloro-3-fluorophenyl)(2,6-dimethyl-4-(1H-pyrazol-5-yl)-5,6-dihydropyrido[3,4-d]pyrimidin-7(8H)-yl)methanone]: the remaining activity at 10 µM on P2X7 [2] is -2.7%.
In the case of `Cc1nc2c(c(-c3ccnn3C)n1)CC(C)N(C(=O)c1cccc(C(F)(F)F)c1Cl)C2` (centres unmarked) [Example 73, (2-chloro-3-(trifluoromethyl)phenyl)(2,6-dimethyl-4-(1-methyl-1H-pyrazol-5-yl)-5,6-dihydropyrido[3,4-d]pyrimidin-7(8H)-yl)methanone], at P2X7 [2], the remaining activity at 10 µM worked out at 2.2%. Further, at rat P2X7, the IC50 is 17.8 nM.
Consider `Cc1nc2c(c(-c3ccn[nH]3)n1)CC(C)N(C(=O)c1cccc(C(F)(F)F)c1F)C2` (centres unmarked) [Example 74, (2,6-dimethyl-4-(1H-pyrazol-5-yl)-5,6-dihydropyrido[3,4-d]pyrimidin-7(8H)-yl)(2-fluoro-3-(trifluoromethyl)phenyl)methanone], for which the remaining activity at 10 µM at P2X7 [2] was 22.5%.
Regarding `Cc1nc2c(c(-c3ccn[nH]3)n1)CC(C)N(C(=O)c1ccc(F)c(Cl)c1Cl)C2` (centres unmarked) [Example 80, (2,3-dichloro-4-fluorophenyl)(2,6-dimethyl-4-(1H-pyrazol-5-yl)-5,6-dihydropyrido[3,4-d]pyrimidin-7(8H)-yl)methanone], on P2X7 [2], the remaining activity at 10 µM is 18.4%.
`Cc1nc2c(c(-c3ccn[nH]3)n1)CC(C)N(C(=O)c1ccc(Cl)cc1Cl)C2` (centres unmarked) [Example 83, (2,4-dichlorophenyl)(2,6-dimethyl-4-(1H-pyrazol-5-yl)-5,6-dihydropyrido[3,4-d]pyrimidin-7(8H)-yl)methanone]: on P2X7 [2], the remaining activity at 10 µM is 2.7%.
For `Cc1nc2c(c(-c3ccn[nH]3)n1)CC(C)N(C(=O)c1cc(Cl)ccc1Cl)C2` (centres unmarked) [Example 86, (2,5-dichlorophenyl)(2,6-dimethyl-4-(1H-pyrazol-5-yl)-5,6-dihydropyrido[3,4-d]pyrimidin-7(8H)-yl)methanone], the remaining activity at 10 µM on P2X7 [2] is 92.2%.
In the case of `CCc1nc2c(c(-c3ccn[nH]3)n1)CC(C)N(C(=O)c1cccc(C(F)(F)F)c1Cl)C2` (centres unmarked) [Example 98, (2-chloro-3-(trifluoromethyl)phenyl)(2-ethyl-6-methyl-4-(1H-pyrazol-5-yl)-5,6-dihydropyrido[3,4-d]pyrimidin-7(8H)-yl)methanone], the remaining activity at 10 µM at P2X7 [2] is 13.2%.
Still for that read-out and setting: as for `CC(C)c1nc2c(c(-c3ccn[nH]3)n1)CC(C)N(C(=O)c1cccc(C(F)(F)F)c1Cl)C2` (centres unmarked) [Example 101, (2-chloro-3-(trifluoromethyl)phenyl)(2-isopropyl-6-methyl-4-(1H-pyrazol-5-yl)-5,6-dihydropyrido[3,4-d]pyrimidin-7(8H)-yl)methanone], the figure is 13.6%.
For the compound `CCc1nc2c(c(-c3ccn[nH]3)n1)CC(C)N(C(=O)c1ccc(Cl)c(F)c1Cl)C2` (centres unmarked) [Example 104, (2,4-dichloro-3-fluorophenyl)(2-ethyl-6-methyl-4-(1H-pyrazol-5-yl)-5,6-dihydropyrido[3,4-d]pyrimidin-7(8H)-yl)methanone], the remaining activity at 10 µM at P2X7 [2] was -1.3%. On rat P2X7, the IC50 amounted to 23.7 nM.
Regarding `CC1c2ncnc(-c3ccn[nH]3)c2CCN1C(=O)c1cccc(C(F)(F)F)c1Cl` (centres unmarked) [Example 112, (2-chloro-3-(trifluoromethyl)phenyl)(8-methyl-4-(1H-pyrazol-5-yl)-5,6-dihydropyrido[3,4-d]pyrimidin-7(8H)-yl)methanone], the remaining activity at 10 µM at P2X7 [2] is -1.8%. The IC50 at rat P2X7 is 16 nM.
For the compound `CC1c2ncnc(-c3ccn[nH]3)c2CCN1C(=O)c1ccc(F)c(C(F)(F)F)c1Cl` (centres unmarked) [Example 115, (2-chloro-4-fluoro-3-(trifluoromethyl)phenyl)(8-methyl-4-(1H-pyrazol-5-yl)-5,6-dihydropyrido[3,4-d]pyrimidin-7(8H)-yl)methanone], the remaining activity at 10 µM at P2X7 [2] is -3.1%.
Turning to `CC1c2ncnc(-c3ccn[nH]3)c2CCN1C(=O)c1ccc(F)c(Cl)c1Cl` (centres unmarked) [Example 118, (2,3-dichloro-4-fluorophenyl)(8-methyl-4-(1H-pyrazol-5-yl)-5,6-dihydropyrido[3,4-d]pyrimidin-7(8H)-yl)methanone], the remaining activity at 10 µM on P2X7 [2] is -0.6%. For the same compound, the IC50 at rat P2X7 is 21 nM.
With `CC1c2ncnc(-c3ccn[nH]3)c2CCN1C(=O)c1ccc(Cl)c(F)c1Cl` (centres unmarked) [Example 121], at P2X7 [2], the remaining activity at 10 µM stood at 0.7%.
